Assay results published in patent US20100286193A1, “Novel Azabicyclo[3.2.1]Oct-2-Ene Derivatives and Their Use as Monoamine Neurotransmitter Re-Uptake Inhibitors” (priority 2005, published 2010).
Counter-ions that a name gives are not always drawn.

Legend:
[1] = target: T1, serotonine (5-HT) reuptake in synaptosomes (Rattus norvegicus, UniProt P31652); experiment: Inhibition of serotonin reuptake in synaptosomes; type: biochemical; settings: 3H-5-HT, as described in WO 97/16451, read-out: 5-HT-uptake IC50
T1 construct: in synaptosomes as described in WO 97/16451; from tissue

[2] = target: T2, noradrenaline (NA) reuptake in synaptosomes (Rattus norvegicus, UniProt Q63380); experiment: Inhibition of noradrenaline reuptake in synaptosomes; type: biochemical; settings: 3H-NA, as described in WO 97/16451, read-out: NA-uptake IC50
T2 construct: in synaptosomes as described in WO 97/16451; from tissue

[3] = target: T3, dopamine (DA) reuptake in synaptosomes (Rattus norvegicus, UniProt P23977); experiment: Inhibition of dopamine reuptake in synaptosomes; type: biochemical; settings: 3H-DA, as described in WO 97/16451, read-out: DA-uptake IC50
T3 construct: in synaptosomes as described in WO 97/16451; from tissue
T3 sequence (P23977 whole entry): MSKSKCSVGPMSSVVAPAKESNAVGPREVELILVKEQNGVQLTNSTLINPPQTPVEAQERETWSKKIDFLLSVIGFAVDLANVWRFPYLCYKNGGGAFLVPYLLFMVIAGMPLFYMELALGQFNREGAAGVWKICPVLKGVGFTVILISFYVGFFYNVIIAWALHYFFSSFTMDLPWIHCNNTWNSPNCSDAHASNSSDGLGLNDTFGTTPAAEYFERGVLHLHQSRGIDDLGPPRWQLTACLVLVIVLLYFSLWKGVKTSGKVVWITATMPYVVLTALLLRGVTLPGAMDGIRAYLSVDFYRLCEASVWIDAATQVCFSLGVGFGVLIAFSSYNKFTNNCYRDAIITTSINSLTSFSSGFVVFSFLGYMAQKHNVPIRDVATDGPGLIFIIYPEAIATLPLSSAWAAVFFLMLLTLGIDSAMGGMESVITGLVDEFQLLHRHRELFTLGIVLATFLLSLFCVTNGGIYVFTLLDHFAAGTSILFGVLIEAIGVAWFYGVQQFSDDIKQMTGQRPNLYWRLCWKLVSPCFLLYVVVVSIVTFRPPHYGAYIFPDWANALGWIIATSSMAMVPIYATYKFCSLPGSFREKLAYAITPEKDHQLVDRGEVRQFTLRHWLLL

T2 sequence (Q63380 1-617): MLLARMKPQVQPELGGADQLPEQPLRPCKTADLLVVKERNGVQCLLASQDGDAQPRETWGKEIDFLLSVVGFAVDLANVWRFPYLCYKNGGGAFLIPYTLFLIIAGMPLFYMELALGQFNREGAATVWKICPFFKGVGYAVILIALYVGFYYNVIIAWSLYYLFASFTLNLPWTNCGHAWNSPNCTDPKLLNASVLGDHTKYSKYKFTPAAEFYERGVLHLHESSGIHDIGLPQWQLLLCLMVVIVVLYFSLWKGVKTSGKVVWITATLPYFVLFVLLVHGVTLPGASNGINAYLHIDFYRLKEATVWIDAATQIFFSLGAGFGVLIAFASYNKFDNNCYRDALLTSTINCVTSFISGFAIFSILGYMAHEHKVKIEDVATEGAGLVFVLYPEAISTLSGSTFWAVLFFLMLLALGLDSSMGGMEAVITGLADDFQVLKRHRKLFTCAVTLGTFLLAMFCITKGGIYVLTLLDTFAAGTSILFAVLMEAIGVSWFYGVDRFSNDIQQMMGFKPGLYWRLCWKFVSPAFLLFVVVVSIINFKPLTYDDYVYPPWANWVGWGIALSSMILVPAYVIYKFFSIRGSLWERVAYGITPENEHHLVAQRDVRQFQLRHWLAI
T1 sequence (P31652 whole entry): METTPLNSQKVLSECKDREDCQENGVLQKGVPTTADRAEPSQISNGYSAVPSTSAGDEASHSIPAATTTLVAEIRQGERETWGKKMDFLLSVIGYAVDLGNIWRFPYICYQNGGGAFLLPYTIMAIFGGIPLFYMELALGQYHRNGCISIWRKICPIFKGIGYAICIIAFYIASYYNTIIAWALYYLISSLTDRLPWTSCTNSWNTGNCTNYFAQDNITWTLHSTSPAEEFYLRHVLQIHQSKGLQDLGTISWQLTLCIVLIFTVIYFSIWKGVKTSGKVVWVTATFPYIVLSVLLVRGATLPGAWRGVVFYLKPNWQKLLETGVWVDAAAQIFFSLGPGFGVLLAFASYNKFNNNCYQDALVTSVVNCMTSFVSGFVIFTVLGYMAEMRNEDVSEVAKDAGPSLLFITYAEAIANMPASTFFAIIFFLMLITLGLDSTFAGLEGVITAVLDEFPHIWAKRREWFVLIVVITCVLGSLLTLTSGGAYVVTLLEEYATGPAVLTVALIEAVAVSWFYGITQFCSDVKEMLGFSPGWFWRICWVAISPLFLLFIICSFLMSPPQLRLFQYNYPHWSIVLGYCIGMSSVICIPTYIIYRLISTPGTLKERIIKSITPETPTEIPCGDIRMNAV

| Compound | melting point | IC50 [1] | IC50 [2] | IC50 [3] |
| --- | --- | --- | --- | --- |
| Cc1cc(C2=CC3CCC(C2)N3)ccc1Cl (single isomer, unassigned; (+)) (as salt: tartaric acid salt) [(+)-3-(4-Chloro-3-methylphenyl)-8-H-8-azabicyclo[3.2.1]oct-2-ene D-tartaric acid salt] | 164 to 177 °C | – | – | – |
| Cc1ccc(C2=CC3CCC(C2)N3)cc1Br (racemic) [(±)-3-(3-Bromo-4-methylphenyl)-8-H-8-azabicyclo[3.2.1]oct-2-ene hydrochloric acid salt] | – | 1.4 nM | 15 nM | 13 nM |
| Cc1ccc(C2=CC3CCC(C2)N3)cc1Cl (single isomer, unassigned; (-)) (as salt: tartaric acid salt) [(−)-3-(3-Chloro-4-methylphenyl)-8-H-8-azabicyclo[3.2.1]oct-2-ene L-tartaric acid salt] | 156.3 to 161.5 °C | – | – | – |
| Cc1cc(C2=CC3CCC(C2)N3)ccc1Cl (single isomer, unassigned; (+)) [(+)-3-(4-Chloro-3-methylphenyl)-8-H-8-azabicyclo[3.2.1]oct-2-ene D-tartaric acid salt] | – | 2.3 nM | 8.2 nM | 110 nM |
| Cc1ccc(C2=CC3CCC(C2)N3)cc1Cl (single isomer, unassigned; (-)) [(−)-3-(3-Chloro-4-methylphenyl)-8-H-8-azabicyclo[3.2.1]oct-2-ene L-tartaric acid salt] | – | 1.8 nM | 6.8 nM | 140 nM |
